Reference: patent US11944603B2, “Use of compound or medicinal derivative thereof in inhibiting AIM2 protein activity” (priority 2022, dated 2024)

Key:
[1] = biological target: T1, human AIM2 protein (Homo sapiens, UniProt O14862); assay: Affinity by surface-plasmon resonance (Biacore), amino coupling; details: human full-length AIM2 protein, SPR; read-out: binding constant
T1 construct: a human full-length AIM2 protein is expressed and purified firstly by pET28a vector; made in house
T1 sequence (O14862 1-343): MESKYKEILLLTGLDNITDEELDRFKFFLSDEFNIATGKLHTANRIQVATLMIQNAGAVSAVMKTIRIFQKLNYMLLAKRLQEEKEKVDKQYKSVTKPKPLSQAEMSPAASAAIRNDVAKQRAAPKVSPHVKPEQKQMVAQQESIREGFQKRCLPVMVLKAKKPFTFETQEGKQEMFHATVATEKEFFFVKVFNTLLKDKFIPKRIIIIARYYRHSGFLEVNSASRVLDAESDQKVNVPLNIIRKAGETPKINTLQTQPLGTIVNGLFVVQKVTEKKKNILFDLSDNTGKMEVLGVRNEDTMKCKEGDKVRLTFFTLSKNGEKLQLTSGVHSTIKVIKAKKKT
Protocol: (§1) In the embodiment of the disclosure, the affinity between SLD-1 and human AIM2 protein is detected. Specifically, a human full-length AIM2 protein is expressed and purified firstly by pET28a vector, and then the affinity is determined by CMS chip amino-coupling method through a surface-plasmon resonance (SPR) method of Biacore.

[2] = test system: T lymphocytes of TCRγ/CD3+ RORγt in mouse skin; assay: IMQ psoriasis mouse model: flow cytometry of skin lymphocytes; type: in vivo, C57/BL6 mice; details: 2.5 mg/kg, compared with IMQ mice without SLD-1
Protocol: (§2) Dimethyl sulfoxide (DMSO) is used to dissolve SLD-1 powder, the powder is weighed according to different dosage, then diluted with β-cyclodextrin, and a final concentration of DMSO shall not exceed 5%. The dose gradients of SLD-1 set are 0 mg/kg, 2.5 mg/kg, 5 mg/kg and 10 mg/kg respectively. Each mouse is calculated as 20 grams (g), and 0 mg, 0.05 mg, 0.1 mg and 0.2 mg of SLD-1 are administered respective mice every day.
(§3) Seven-week-old C57/BL6 mice are selected, fed and modeled in a […] (SPF) environment. The experimental groups are as follows: • (1) mouse skin smeared with IMQ and 0 mg/kg of SLD-1; • (2) mouse skin smeared with IMQ and 2.5mg/kg of SLD-1; • (3) mouse skin smeared with IMQ and 5 mg/kg of SLD-1; • (4) mouse skin smeared with IMQ and 10 mg/kg of SLD-1; • (5) mouse skin smeared with Vaseline and 0 mg/kg of SLD-1; • (6) mouse skin smeared with Vaseline and 2.5mg/kg of SLD-1; • (7) mouse skin smeared with Vaseline and 5 mg/kg of SLD-1; and • (8) mouse skin smeared with Vaseline and 10 mg/kg of SLD-1.
Six mice in each group are shaved back hair to make a exposed skin reach 4 square centimeters. A start date of the experiment is set as day 0 and an end date is set as day 6. […] The mouse skins are scored every day, the mice are sacrificed on day 6, and skin tissue is taken for a series of tests. […]

[3] = biological target: T2, mouse AIM2 protein (Mus musculus, UniProt Q91VJ1); assay: Affinity by surface plasmon resonance (Biacore), amino coupling; details: mouse full-length AIM2 protein, SPR; read-out: binding constant
T2 construct: a mouse full-length AIM2 protein is expressed and purified firstly by pET28a vector; made in house
T2 sequence (Q91VJ1 1-354): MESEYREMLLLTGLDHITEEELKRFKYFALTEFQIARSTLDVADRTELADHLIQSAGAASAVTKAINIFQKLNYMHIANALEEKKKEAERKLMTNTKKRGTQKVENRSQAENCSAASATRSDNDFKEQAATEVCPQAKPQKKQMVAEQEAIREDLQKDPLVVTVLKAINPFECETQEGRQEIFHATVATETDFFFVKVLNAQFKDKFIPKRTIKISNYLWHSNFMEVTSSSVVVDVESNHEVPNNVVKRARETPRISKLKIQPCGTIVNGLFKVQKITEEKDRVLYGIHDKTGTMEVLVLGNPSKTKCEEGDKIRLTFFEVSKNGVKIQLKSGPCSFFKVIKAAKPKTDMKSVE
Protocol: as §1, with “mouse” for “human”, “amino coupling” for “amino-coupling”, “by” for “through”, “surface plasmon” for “surface-plasmon”

[4] = test system: AIM2 pathway in mouse skin; assay: IMQ psoriasis mouse model: AIM2 pathway gene transcription and protein levels in skin; type: in vivo, C57/BL6 mice
Protocol: as §2, §3
(§4) Six mice in each group are shaved back hair to make a exposed skin reach 4 square centimeters. A start date of the experiment is set as day 0 and an end date is set as day 6. From day 0 to Day 5, 100 μL medicine solution is taken every day and evenly smeared mouse skin to absorb. From day 2 to day 5, each mouse 62.5 mg IMQ is smeared every day after 20 minutes of SLD-1 inhibitor. The mouse skins are scored every day, the mice are sacrificed on day 6, and skin tissue is taken for a series of tests.

[5] = test system: AIM2 pathway in HaCaT cells; assay: HaCaT cell model, real-time fluorescence PCR of IL-1β and AIM2 pathway genes; type: cell-based; details: 25 uM
Protocol: (§5) (1) A positive control (PC), a negative control (NC) and respective treatment groups are set. An inclusion of Lip3000 (Lipofectamine™ 3000 Transfection Reagent) and OligodA-T (OligodA-T:Lip3000:P3000=1:1:25, a concentration of OligodA-T is 1 ug/mL) is used to transfect HaCat cells, and only the same amount of transfection reagent (Lip3000:P3000=1:1) is added in NC group. The HaCat cells are co-transfected with an inclusion of Lip3000-OligodA-T at gradient doses (0.1 uM, 1 uM, 5 uM, 10 uM and 25 uM) of SLD-1 in the respective treatment groups.
(2) The positive control (PC), negative control (NC) and the respective treatment groups are incubated in a cell incubator containing 5% CO2 at 37° C. for 24 hours, and the cells are collected for real-time fluorescence PCR detection to observe the effect of different doses of inhibitors on the activation of AIM2 pathway in the HaCaT cells.
(4) In addition, the effect of 25 uM of SLD-1 on the transcription level of genes in the AIM2 pathway of the HaCat cell model is detected, and results are shown in FIG. 11.

[6] = test system: IL-1β mRNA in HaCaT cells; assay: Screening in HaCaT cell model stimulated by OligodA-T, real-time PCR of IL-1β mRNA; type: cell-based; details: 10 uM, 24 hours, OligodA-T 1 ug/mL, among 100 compounds
Protocol: The protective ability of 100 compounds screened above against cell pyroptosis of HaCaT cells stimulated by OligodA-T is evaluated by the real-time fluorescent quantitative polymerase chain reaction (PCR) detection of IL-1β mRNA in the stimulated cells.
1. Positive control (PC) and negative control (NC) are set in the experimental group. An inclusion of Lip3000 (Lipofectamine™ 3000 Transfection Reagent) and OligodA-T (OligodA-T:Lip3000:P3000=1:1:25, a concentration of OligodA-T is 1 microgram per […] (ug/mL)) is used to transfect HaCat cells. Lip3000-OligodA-T and 10 micromoles per liter (uM) small molecule inhibitor are used to transfect the HaCat cells in each treatment group, and only the same amount of transfection reagent (Lip3000:P3000=1:1) is added in NC group.
2. Each experimental group is incubated in a cell incubator containing 5% CO2 for 24 hours at 37° C., and the cells are collected for real-time fluorescence PCR detection.

[7] = test system: HaCaT cells; assay: HaCaT cell model, cell state under microscope (pyroptosis); type: cell-based; details: 25 uM, microscope 100 times and 400 times
Protocol: as §5
(3) In this situation, a cell state of 25 uM gradient is observed under microscope fields of 100 times and 400 times, and results are shown in FIG. 10.

[8] = test system: IMQ mice; assay: IMQ psoriasis mouse model: PASI scores, skin phenotype, skin pathology; type: in vivo, C57/BL6 mice
Protocol: as §2, §3, §4
PASI scores, skin phenotypes and skin pathological phenotypes of the above IMQ modeled mice are shown in FIG. 13, FIG. 14 and FIG. 15 respectively.

[9] = test system: AIM2 downstream protein in HaCaT cells; assay: HaCaT cell model, expression of AIM2 downstream protein; type: cell-based; details: 25 uM
Protocol: as §5
(5) Moreover, the expression of AIM2 downstream protein in the HaCaT cells treated with 25 uM SLD-1 is detected, and results are shown in FIG. 12.

- Kd [1]: 10.3 µM
- Kd [3]: 10.3 µM
Structure (SMILES): Cn1c(=O)n(C)c2cc(C(O)COc3ccc(CNC4C5CC6CC(C5)CC4C6)cc3)ccc21 (stereo not drawn) [SLD-1]
- proportion of TCRγ/CD3+ RORγt in skin lymphocytes [2]: significantly lower
- AIM2 downstream procaspase-1 and proil-1β in the mouse skin ([4]; 2.5 mg/kg): no effect
- content of caspase-1p20 and IL-1βp17 in the mouse skin ([4]; 2.5 mg/kg): decreases the content of caspase-1p20 and IL-1βp17
- transcription levels of AIM2 pathway genes in the mouse skin ([4]; respective groups): no significant difference
- transcription of major genes in the AIM2 pathway compared with the PC [5]: significantly decreased
- IL-1β transcription levels compared to the PC ([5]; of gradient 0.1, 1, 5, 10, 25 uM, 24 hours): reduced IL-β transcription levels in the HaCat cells the most
- inhibitory effect on IL-1β mRNA compared with the positive control [6]: most significant inhibitory effect (p<0.0001)
- cell state (pyroptosis, density, adhesion) [7]: close to that of the NC, with very few transparent pyroptosis cells, a high cell density and a good adhesion
- reduction effect on inflammatory phenotype of IMQ mice ([8]; 2.5 mg/kg smeared on skin): the most significant
- reduction effect on inflammatory phenotype of IMQ mice, comparison of doses ([8]; 5 mg/kg and 10 mg/kg smeared on skin): no difference between 5 mg/kg and 10 mg/kg
- inflammatory phenotype of IMQ mice (PASI, skin phenotype, pathology) ([8]; three doses 2.5, 5, 10 mg/kg smeared on skin, day 0 to day 5): reduced the inflammatory phenotype of IMQ mice to varying degrees
- AIM2 downstream procaspase-1 and proIL-1β expression [9]: no effect
- content of caspase-1p20 and IL-1βp17 [9]: reduces the content of caspase-1p20 and IL-1βp17
